Measured values taken from patent US8815249B2 (priority 1999, dated 2014).
Like-named read-outs stand apart in the source and are kept apart here. Non-standard residues stand in square brackets, D forms with d. Ava = NCCCCC(=O)O

Key:
[1] = test system: normal donor (DR0701) PBMC; assay type: cell-based, human
[2] = test system: HIV gp160(843-855) peptide; assay type: in vivo; settings: B10.A (5R) mice, peptides in saline solution, serum day 35
Description: An ELISA assay for antibody responses following immunization with the experimental peptides indicated above was performed as follows. Fifty microliters (μl) of a solution of the coating peptide at 2 μg/well in 0.1 M carbonate buffer, pH 9.5 was added to each well of a 96-well Nunc-immunoplate (#442404) for an overnight incubation at 4° C. After aspiration, 250 μl of phosphate-buffer saline solution containing 3% fetal bovine serum (assay diluent) was added to each well for 2 hr at RT. After washing three times with assay diluent, 50 μl of 20-times diluted mouse serum in 1:3 serial dilution in assay diluent was added to each well for 2 hr at RT. After washing three times with assay diluent, 50 μl of 1 ÿg/ml biotinylated goat anti-mouse IgG1 or IgG2a was added to each well and incubated for 1 hr at RT. After washing three times with assay diluent, 50 μl of streptavidin-horse radish peroxidase conjugate (1:1000) was added to each well and incubated for 30 min at RT. After washing three times with assay diluent, 100 μl of tetramethylbenzidine/H2O2 solution (Pharmingen 264KK) was added to each well for 15 min in the dark at room temperature. The reaction was stopped with 100 μl 1N H2SO4 in each well and the absorbance was read immediately at 450 nm.
B10.A (5R) mice (H-2^k/b) were immunized with 20 nmole of peptides in 50 μl phosphate-buffered saline solution, intramuscularly in right and left rear legs on days 1 and 2, respectively. On day 14 the mice were boosted intramuscularly with 40 nmole of peptides in 200 μl Hank's balanced salts solution intramuscularly in a rear leg. On day 30 the mice were boosted intravenously with 40 nmole peptides dissolved in Hank's balanced salts solution (HBSS). On day 35 the mice were sacrificed and serum samples were assayed for antibody titers against the HIV gp160(843-855) peptide.

[3] = test system: normal donor (DR0402) PBMC; assay type: cell-based, human

Q: For “AE-Her-47 (Ac-LRMK[Ava]GSPYVSRLLGICL-NH2; SMILES CC[C@H](C)[C@H](NC(=O)CNC(=O)[C@H](CC(C)C)NC(=O)[C@H](CC(C)C)NC(=O)[C@H](CCCNC(=N)N)NC(=O)[C@H](CO)NC(=O)[C@@H](NC(=O)[C@H](Cc1ccc(O)cc1)NC(=O)[C@@H]1CCCN1C(=O)[C@H](CO)NC(=O)CNC(=O)CCCCNC(=O)[C@H](CCCCN)NC(=O)[C@H](CCSC)NC(=O)[C@H](CCCNC(=N)N)NC(=O)[C@H](CC(C)C)NC(C)=O)C(C)C)C(=O)N[C@@H](CS)C(=O)N[C@@H](CC(C)C)C(N)=O)”, which IFN-γ spots pulsed [1] is on record?
A: 380 spots

Q: And the IFN-γ spots unpulsed [1]?
A: 23 spots

Q: Which “Antibody induction, ELISA against HIV gp160(843-855) peptide” value (“Antibody induction, ELISA” below) ([2]; Dilution^−1 20) does the source give for “Ac-LRMK-ava-ava-AYRAIRHIPR-NH2 (Ac-LRMK[Ava][Ava]AYRAIRHIPR-NH2; SMILES CC[C@H](C)[C@H](NC(=O)[C@H](C)NC(=O)[C@H](CCCNC(=N)N)NC(=O)[C@H](Cc1ccc(O)cc1)NC(=O)[C@H](C)NC(=O)CCCCNC(=O)CCCCNC(=O)[C@H](CCCCN)NC(=O)[C@H](CCSC)NC(=O)[C@H](CCCNC(=N)N)NC(=O)[C@H](CC(C)C)NC(C)=O)C(=O)N[C@@H](CCCNC(=N)N)C(=O)N[C@@H](Cc1c[nH]cn1)C(=O)N[C@H](C(=O)N1CCC[C@H]1C(=O)N[C@@H](CCCNC(=N)N)C(N)=O)[C@@H](C)CC) [Ii-Key/two-ava/gp160(843-855)]” here?
A: 0.131

Q: What about the “Antibody induction, ELISA” value ([2]; Dilution^−1 60) of the same substance?
A: 0.039

Q: And the “Antibody induction, ELISA” value ([2]; Dilution^−1 180)?
A: 0.027

Q: And the “Antibody induction, ELISA” value ([2]; Dilution^−1 540)?
A: 0.003

Q: What does the source list for AE-TYR-1 (Ac-ALHIYMDGTMSQVQGSA-NH2)?
A: IFN-γ spots pulsed [3]: 120 spots; IFN-γ spots unpulsed [3]: 0 spots

Q: How did the IFN-γ spots pulsed [3] turn out when “AE-TYR-3 (Ac-LRMK[Ava]NALHIYMDGTMSQVQGSA-NH2; SMILES CC[C@H](C)[C@H](NC(=O)[C@H](Cc1c[nH]cn1)NC(=O)[C@H](CC(C)C)NC(=O)[C@H](C)NC(=O)[C@H](CC(N)=O)NC(=O)CCCCNC(=O)[C@H](CCCCN)NC(=O)[C@H](CCSC)NC(=O)[C@H](CCCNC(=N)N)NC(=O)[C@H](CC(C)C)NC(C)=O)C(=O)N[C@@H](Cc1ccc(O)cc1)C(=O)N[C@@H](CCSC)C(=O)N[C@@H](CC(=O)O)C(=O)NCC(=O)N[C@H](C(=O)N[C@@H](CCSC)C(=O)N[C@@H](CO)C(=O)N[C@@H](CCC(N)=O)C(=O)N[C@H](C(=O)N[C@@H](CCC(N)=O)C(=O)NCC(=O)N[C@@H](CO)C(=O)N[C@@H](C)C(N)=O)C(C)C)[C@@H](C)O)” was run?
A: 310 spots

Q: What about the IFN-γ spots unpulsed [3] of the same substance?
A: 70 spots

Q: Which IFN-γ spots pulsed [1] does the source give for “AE-Her-38 (Ac-LRMK[Ava]SPYVSRLLGICL-NH2; SMILES CC[C@H](C)[C@H](NC(=O)CNC(=O)[C@H](CC(C)C)NC(=O)[C@H](CC(C)C)NC(=O)[C@H](CCCNC(=N)N)NC(=O)[C@H](CO)NC(=O)[C@@H](NC(=O)[C@H](Cc1ccc(O)cc1)NC(=O)[C@@H]1CCCN1C(=O)[C@H](CO)NC(=O)CCCCNC(=O)[C@H](CCCCN)NC(=O)[C@H](CCSC)NC(=O)[C@H](CCCNC(=N)N)NC(=O)[C@H](CC(C)C)NC(C)=O)C(C)C)C(=O)N[C@@H](CS)C(=O)N[C@@H](CC(C)C)C(N)=O)” here?
A: 210 spots

Q: And the IFN-γ spots unpulsed [1]?
A: 27 spots

Q: “AE-TYR-6 (Ac-LRMK[Ava]HIYMDGTMSQVQGSA-NH2; SMILES CC[C@H](C)[C@H](NC(=O)[C@H](Cc1c[nH]cn1)NC(=O)CCCCNC(=O)[C@H](CCCCN)NC(=O)[C@H](CCSC)NC(=O)[C@H](CCCNC(=N)N)NC(=O)[C@H](CC(C)C)NC(C)=O)C(=O)N[C@@H](Cc1ccc(O)cc1)C(=O)N[C@@H](CCSC)C(=O)N[C@@H](CC(=O)O)C(=O)NCC(=O)N[C@H](C(=O)N[C@@H](CCSC)C(=O)N[C@@H](CO)C(=O)N[C@@H](CCC(N)=O)C(=O)N[C@H](C(=O)N[C@@H](CCC(N)=O)C(=O)NCC(=O)N[C@@H](CO)C(=O)N[C@@H](C)C(N)=O)C(C)C)[C@@H](C)O)” was tested. Which IFN-γ spots pulsed [3] did it give?
A: 650 spots

Q: And the IFN-γ spots unpulsed [3]?
A: 280 spots

Q: With “Ac-LRMK-ava-AYRAIRHIPR-NH2 (Ac-LRMK[Ava]AYRAIRHIPR-NH2; SMILES CC[C@H](C)[C@H](NC(=O)[C@H](C)NC(=O)[C@H](CCCNC(=N)N)NC(=O)[C@H](Cc1ccc(O)cc1)NC(=O)[C@H](C)NC(=O)CCCCNC(=O)[C@H](CCCCN)NC(=O)[C@H](CCSC)NC(=O)[C@H](CCCNC(=N)N)NC(=O)[C@H](CC(C)C)NC(C)=O)C(=O)N[C@@H](CCCNC(=N)N)C(=O)N[C@@H](Cc1c[nH]cn1)C(=O)N[C@H](C(=O)N1CCC[C@H]1C(=O)N[C@@H](CCCNC(=N)N)C(N)=O)[C@@H](C)CC) [Ii-Key/one-ava/gp160(843-855)]” as the substance, how does the “Antibody induction, ELISA” value ([2]; Dilution^−1 20) read?
A: 0.600

Q: What about the “Antibody induction, ELISA” value ([2]; Dilution^−1 60) of the same substance?
A: 0.157

Q: And the “Antibody induction, ELISA” value ([2]; Dilution^−1 180)?
A: 0.073

Q: What about the “Antibody induction, ELISA” value ([2]; Dilution^−1 540) of the same substance?
A: 0.024

Q: For “AE-TYR-4 (Ac-LRMK[Ava]ALHIYMDGTMSQVQGSA-NH2; SMILES CC[C@H](C)[C@H](NC(=O)[C@H](Cc1c[nH]cn1)NC(=O)[C@H](CC(C)C)NC(=O)[C@H](C)NC(=O)CCCCNC(=O)[C@H](CCCCN)NC(=O)[C@H](CCSC)NC(=O)[C@H](CCCNC(=N)N)NC(=O)[C@H](CC(C)C)NC(C)=O)C(=O)N[C@@H](Cc1ccc(O)cc1)C(=O)N[C@@H](CCSC)C(=O)N[C@@H](CC(=O)O)C(=O)NCC(=O)N[C@H](C(=O)N[C@@H](CCSC)C(=O)N[C@@H](CO)C(=O)N[C@@H](CCC(N)=O)C(=O)N[C@H](C(=O)N[C@@H](CCC(N)=O)C(=O)NCC(=O)N[C@@H](CO)C(=O)N[C@@H](C)C(N)=O)C(C)C)[C@@H](C)O)”, which IFN-γ spots pulsed [3] is on record?
A: 620 spots

Q: And the IFN-γ spots unpulsed [3]?
A: 340 spots

Q: How did the IFN-γ spots pulsed [1] turn out when AE-Her-37 (Ac-LRMKGVGSPYVSRLLGICL-NH2) was run?
A: 560 spots

Q: And the IFN-γ spots unpulsed [1]?
A: 65 spots

Q: “AE-Her-48 (Ac-LRMK[Ava]VGSPYVSRLLGICL-NH2; SMILES CC[C@H](C)[C@H](NC(=O)CNC(=O)[C@H](CC(C)C)NC(=O)[C@H](CC(C)C)NC(=O)[C@H](CCCNC(=N)N)NC(=O)[C@H](CO)NC(=O)[C@@H](NC(=O)[C@H](Cc1ccc(O)cc1)NC(=O)[C@@H]1CCCN1C(=O)[C@H](CO)NC(=O)CNC(=O)[C@@H](NC(=O)CCCCNC(=O)[C@H](CCCCN)NC(=O)[C@H](CCSC)NC(=O)[C@H](CCCNC(=N)N)NC(=O)[C@H](CC(C)C)NC(C)=O)C(C)C)C(C)C)C(=O)N[C@@H](CS)C(=O)N[C@@H](CC(C)C)C(N)=O)” was tested. Which IFN-γ spots pulsed [1] did it give?
A: 1770 spots

Q: And the IFN-γ spots unpulsed [1]?
A: 212 spots

Q: Which results are given for “AE-Her-36 (Ac-GVGSPYVSRLLGICL-NH2; listed as Homo sapiens)”?
A: IFN-γ spots pulsed [1]: 100 spots; IFN-γ spots unpulsed [1]: 4 spots

Q: For AE-TYR-2 (Ac-HNALHIYMDGTMSQVQGSA-NH2), which IFN-γ spots pulsed [3] is on record?
A: 360 spots

Q: And the IFN-γ spots unpulsed [3]?
A: 140 spots

Q: How did the IFN-γ spots pulsed [1] turn out when “AE-Her-39 (Ac-LRMK[Ava]GVGSPYVSRLLGICL-NH2; SMILES CC[C@H](C)[C@H](NC(=O)CNC(=O)[C@H](CC(C)C)NC(=O)[C@H](CC(C)C)NC(=O)[C@H](CCCNC(=N)N)NC(=O)[C@H](CO)NC(=O)[C@@H](NC(=O)[C@H](Cc1ccc(O)cc1)NC(=O)[C@@H]1CCCN1C(=O)[C@H](CO)NC(=O)CNC(=O)[C@@H](NC(=O)CNC(=O)CCCCNC(=O)[C@H](CCCCN)NC(=O)[C@H](CCSC)NC(=O)[C@H](CCCNC(=N)N)NC(=O)[C@H](CC(C)C)NC(C)=O)C(C)C)C(C)C)C(=O)N[C@@H](CS)C(=O)N[C@@H](CC(C)C)C(N)=O)” was run?
A: 160 spots

Q: And the IFN-γ spots unpulsed [1]?
A: 24 spots
